Data set [1] deals with brain of mice following infection with Plasmodium berghei ANKA or naïve mice. The data set is described as follows: Probe distribution into the CNS in experimental cerebral malaria, images 4 hours post injection. Format: in vivo. The conditions noted are these: tail vein injection.
The test system of data set [2] is brains of mice 6 days post infection with P. berghei ANKA versus naïve mice. The conditions noted are these: mouse, in vivo. On the procedure:
In an additional experiment, C57 black mice were infected with 80,000 parasites (P. berghei ANKA). […] Mice were scanned by IVIS™ optical imager. The measurements were performed for 5 hours. For each mouse, the intensity of brain ICG emission was compared to that of the foot. […] Five hours post injection mice were sacrificed and brains were scanned by TYPHOON™ imager.

Take `CC1(C)C(/C=C/C=C/C=C/C=C2\N(CCCCS(=O)(=O)O)c3ccc4ccccc4c3C2(C)C)=[N+](CCCCS(=O)(=O)[O-])c2ccc3ccccc3c21` [free ICG, Indocyanine green]: in data set [1] (mice infected with Plasmodium berghei ANKA), the “uptake into the brain of diseased mice” value was “but not free ICG, were preferentially uptaken into the brain”. Besides, the “fluorescence in the brain of naïve mice” value in data set [1] (naïve mice) was “no significant fluorescence”. In addition, the “brain emission, infected versus naïve mice (statistical difference)” value in data set [2] is reported as “not statistically different”.

The record behind these values is patent US20150119698A1, “Compositions Comprising Near-Infrared Fluorescent Particles And Uses Thereof For Imaging Activated Immune Cells In the CNS” (priority 2012, published 2015).
